Laboratory results: the supplement of paper PMC10307832

Key:
Experiment in all cases: relative viability (nuclei count vs DMSO), 5 days (fraction); higher = more cells survive
Shikonin + Linsitinib = compound: CC(C)=CC[C@@H](O)C1=CC(=O)c2c(O)ccc(O)c2C1=O [Shikonin] + C[C@]1(O)C[C@@H](c2nc(-c3ccc4ccc(-c5ccccc5)nc4c3)c3c(N)nccn32)C1 [Linsitinib] (partner 1 µM)
Outline: (§1)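 A single step with final 0.05% Triton X-100, 1% formaldehyde and 1 ug/ml Hoechst fixed the cells and stained nuclei 5 days after treatment. Lung cancer cell lines in 1536-well plates had been treated by pin tool the day after seeding with one drug alone or a fixed anchor-drug dose plus five library-drug doses (not always all listed) in √10 steps, and nuclei were counted on 4× images. Relative viability is the ratio of nuclei in treated wells to nuclei in vehicle wells, taken as the median of duplicate plates.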

Shikonin + Dasatinib = compound: CC(C)=CC[C@@H](O)C1=CC(=O)c2c(O)ccc(O)c2C1=O [Shikonin] + Cc1nc(Nc2ncc(C(=O)Nc3c(C)cccc3Cl)s2)cc(N2CCN(CCO)CC2)n1 [Dasatinib] (partner 0.075 µM)
Outline: as §1

Shikonin + Pemetrexed = compound: CC(C)=CC[C@@H](O)C1=CC(=O)c2c(O)ccc(O)c2C1=O [Shikonin] + Nc1nc2[nH]cc(CCc3ccc(C(=O)N[C@@H](CCC(=O)O)C(=O)O)cc3)c2c(=O)[nH]1 [Pemetrexed] (partner 0.2 µM)
Outline: as §1

[1] = compound: CC(C)N(CCCNC(=O)Nc1ccc(C(C)(C)C)cc1)C[C@H]1O[C@@H](n2ccc3c(N)ncnc32)[C@H](O)[C@@H]1O + CS(=O)(=O)CCNCc1ccc(-c2ccc3ncnc(Nc4ccc(OCc5cccc(F)c5)c(Cl)c4)c3c2)o1 [Lapatinib] (partner 2 µM)
Outline: as §1

Row | Cell Line | relative viability (Shikonin + Linsitinib; first compound 0.01 µM) | relative viability (Shikonin + Linsitinib; first compound 0.1 µM) | relative viability (Shikonin + Linsitinib; first compound 0.3162 µM) | relative viability (Shikonin + Linsitinib; first compound 1 µM) | relative viability (Shikonin + Dasatinib; first compound 0.01 µM) | relative viability (Shikonin + Dasatinib; first compound 0.1 µM) | relative viability (Shikonin + Dasatinib; first compound 0.3162 µM) | relative viability (Shikonin + Dasatinib; first compound 1 µM) | relative viability (Shikonin + Pemetrexed; first compound 0.01 µM) | relative viability (Shikonin + Pemetrexed; first compound 0.1 µM) | relative viability (Shikonin + Pemetrexed; first compound 0.3162 µM) | relative viability (Shikonin + Pemetrexed; first compound 1 µM) | relative viability ([1]; first compound 0.08 µM) | relative viability ([1]; first compound 0.253 µM) | relative viability ([1]; first compound 0.8 µM) | relative viability ([1]; first compound 2.53 µM) | relative viability ([1]; first compound 8 µM)
1 | NCI-H1975 | 1.11 | 0.985 | 1.01 | 0.793 | 0.354 | 0.344 | 0.344 | 0.359 | 0.315 | 0.298 | 0.286 | 0.283 | 0.752 | 0.805 | 0.473 | 0.752 | 0.656
2 | NCI-H1944 | 1.2 | 1.44 | 1.35 | 1.27 | 0.193 | 0.247 | 0.196 | 0.158 | 0.625 | 0.719 | 0.676 | 0.572 | 0.764 | 0.88 | 0.652 | 0.847 | 0.795
3 | LU99A | 0.573 | 0.522 | 0.525 | 0.536 | 0.52 | 0.756 | 0.594 | 0.663 | 0.174 | 0.206 | 0.191 | 0.199 | 0.923 | 0.679 | 1.16 | 1.16 | 1.04
4 | NCI-H1993 |  | 0.732 | 0.681 | 0.672 | 0.537 | 0.489 | 0.645 | 0.361 | 0.561 | 0.619 | 0.557 | 0.627 | 0.857 | 0.734 | 0.769 | 0.819 | 0.775
5 | NCI-H2405 | 0.903 | 0.982 | 1.01 | 0.914 | 0.206 | 0.235 | 0.256 | 0.256 | 1.05 | 1.31 | 1.06 | 1.13 | 1.14 |  | 0.811 | 1.13 | 1.09
6 | NCI-H2023 | 0.655 | 0.831 | 0.687 | 0.629 | 0.674 | 0.646 | 0.626 | 0.611 | 0.239 | 0.235 | 0.221 | 0.262 | 0.735 | 0.425 | 0.752 | 0.787 | 0.592
7 | HCC-15 | 0.99 | 0.906 | 0.874 | 0.935 | 0.637 | 0.799 | 0.66 | 0.65 | 0.228 | 0.225 | 0.233 | 0.213 | 0.864 | 0.876 | 0.68 | 0.818 | 0.804
8 | HCC-44 | 0.798 | 0.636 | 0.685 | 0.694 |  |  |  |  | 0.652 | 0.678 | 0.667 | 0.637 | 1.08 | 1.11 | 0.857 | 1.05 | 0.959
9 | COR-L23 | 0.99 | 0.865 | 0.917 | 0.797 | 0.482 | 0.49 | 0.532 | 0.462 | 0.188 | 0.19 | 0.208 | 0.206 | 0.955 | 0.929 | 0.888 | 1.01 | 1.04
10 | HCC-78 | 0.499 | 0.496 | 0.658 | 0.56 | 0.39 | 0.464 | 0.363 | 0.417 | 0.91 | 0.844 | 0.941 | 0.893 | 0.693 | 0.809 | 0.786 | 0.431 | 0.701
11 | NCI-H1299 | 1 | 1.03 | 0.82 | 0.659 |  |  |  |  |  |  |  |  | 0.984 | 0.948 | 0.914 | 0.919 | 0.891
12 | LCLC-103H | 1.03 | 1.21 | 1.26 | 1.23 | 0.499 | 0.462 | 0.549 | 0.586 | 0.436 | 0.49 | 0.46 | 0.477 |  |  |  |  | 
13 | ABC-1 | 0.968 | 0.754 | 0.689 | 0.647 | 0.603 | 0.685 | 0.552 | 0.301 |  |  |  |  | 1.31 | 0.936 | 0.847 | 1.13 | 1.12
14 | NCI-H727 | 0.165 | 0.252 | 0.319 | 0.314 | 0.391 | 0.397 | 0.344 | 0.241 |  |  |  |  | 0.922 | 0.821 | 0.804 | 0.973 | 0.686
15 | NCI-H1650 |  |  |  |  | 0.299 | 0.336 | 0.267 | 0.21 | 0.35 | 0.403 | 0.331 | 0.274 | 0.753 | 0.584 |  | 0.762 | 0.884
16 | ChaGo-K-1 |  |  |  |  | 0.501 | 0.616 | 0.56 | 0.67 | 0.266 | 0.279 | 0.266 | 0.258 |  |  |  |  | 
17 | SW 900 |  |  |  |  | 0.5 | 0.592 | 0.545 | 0.634 | 0.422 | 0.548 | 0.468 | 0.535 |  |  |  |  | 
18 | A549 | 0.59 | 0.485 | 0.728 | 0.637 |  |  |  |  |  |  |  |  | 0.908 | 1.01 | 1.29 | 0.93 | 1.01
19 | NCI-H2342 |  |  |  |  | 0.334 | 0.314 | 0.295 | 0.325 | 0.808 | 0.852 | 0.809 | 0.804 |  |  |  |  | 
20 | NCI-H441 | 0.618 | 0.573 | 0.578 | 0.516 | 0.632 | 0.466 | 0.631 | 0.675 | 0.282 | 0.223 | 0.252 | 0.266 |  |  |  |  | 
21 | NCI-H2170 |  |  |  |  | 0.611 | 0.465 | 0.651 | 0.54 | 0.25 | 0.284 | 0.282 | 0.272 | 0.248 | 0.26 | 0.256 | 0.262 | 0.266
22 | NCI-H1623 |  |  |  |  | 0.475 | 0.541 | 0.569 | 0.635 |  |  |  |  |  |  |  |  | 
23 | NCI-H522 |  |  |  |  | 0.901 | 0.852 | 1.04 | 1.16 | 0.937 | 1 | 1.3 | 1.22 |  |  |  |  | 
24 | IA-LM | 0.738 | 0.473 | 0.434 | 0.573 |  |  |  |  |  |  |  |  | 0.959 | 0.801 | 0.733 | 0.734 | 0.681
25 | EBC-1 | 0.984 | 0.857 | 0.727 | 1.02 |  |  |  |  |  |  |  |  | 0.206 | 0.196 | 0.212 | 0.183 | 0.206
